Source: patent US20260250318A1, “COMPOSITIONS AND METHODS FOR CROSSING THE BLOOD BRAIN BARRIER” (VOYAGER THERAPEUTICS, INC., priority 2022, published 2026)

Legend:
Conditions in all cases: synthetic library passage 3, intravenous, relative to wild-type AAV9
[1] = test system: brain; experiment: NGS fold enrichment of synthetic library (passage 3) in BALB/c mice, first cross-species screen; format: in vivo
Summary of the method: (§1)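 Synthetic capsid library (passage 3) was given intravenously […] to NHPs aged 2-4 years and to BALB/c and C57Bl/6 mice (n=3 each, 6-8 weeks). After about 28 days in vivo, tissue RNA was RT-PCR amplified and NGS-sequenced; values are fold enrichment per variant relative to wild-type AAV9.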

[2] = test system: brain; experiment: NGS fold enrichment of synthetic library (passage 3) in C57Bl/6 mice, first cross-species screen; format: in vivo
Summary of the method: as §1

[3] = test system: brain, spinal cord, and DRG of the NHPs; experiment: NGS fold enrichment of synthetic library (passage 3) in NHPs, first cross-species screen; format: in vivo, cynomolgus macaques (Macaca fascicularis)
Summary of the method: as §1

[4] = RNA from brain of BALB/c mice, NGS
[5] = RNA from brain of C57Bl/6 mice, NGS
[6] = RNA from spinal cord of NHPs, NGS

Sequence | Fold enrichment over AAV9 in the brain of Mice (BALB/c) ([1]; RNA NGS, brain of BALB/c mice) | Fold enrichment over AAV9 in the brain of Mice (C57Bl/6) ([2]; RNA NGS, brain of C57Bl/6 mice) | Fold enrichment over AAV9 in the brain of NHPs ([3]; RNA NGS, brain of NHPs) | Fold enrichment over AAV9 in the spinal cord of NHPs ([3]; RNA NGS, spinal cord of NHPs) | Fold enrichment over AAV9 in the brain of Mice (BALB/c) [1, 4] | Fold enrichment over AAV9 in the brain of Mice (C57Bl/6) [2, 5] | Fold enrichment over AAV9 in the brain of NHPs ([3]; RNA from brain of NHPs, NGS) | Fold enrichment over AAV9 in the spinal cord of NHPs [3, 6]
GSGQQLSITPNQQT | 0.201 fold | 0.845 fold | 1.979 fold | 10.280 fold | – | – | – | –
GSGQREPKASNQQT | – | – | – | – | 0.520 fold | 0.399 fold | 1.214 fold | 2.793 fold
GSGQRGSLTENQQT | – | – | – | – | 0.567 fold | 0.300 fold | 1.337 fold | 2.482 fold
GSGQRLSQGVNHQT | 1.141 fold | 0.931 fold | 1.108 fold | 3.394 fold | – | – | – | –
GSGQRMADIGNQQT | – | – | – | – | 0.427 fold | 0.352 fold | 1.233 fold | 2.539 fold
GSGQRNPLLLNQQT | 0.740 fold | 0.662 fold | 1.693 fold | 0.144 fold | – | – | – | –
GSGQRRELSQNQQT | – | – | – | – | 0.396 fold | 0.622 fold | 1.215 fold | 1.791 fold
GSGQRSPVLPNQQT | 0.526 fold | 0.434 fold | 2.369 fold | 6.230 fold | – | – | – | –
GSGQSFQMHTNQQT | 0.325 fold | 0.503 fold | 1.504 fold | 9.770 fold | – | – | – | –
GSGQSHLHTGNQQT | 0.295 fold | 0.721 fold | 1.096 fold | 2.584 fold | – | – | – | –
GSGQSHMATLNQQT | 0.504 fold | 1.173 fold | 2.657 fold | 0.724 fold | – | – | – | –
GSGQSHRDVLNQQT | 0.280 fold | 0.138 fold | 1.872 fold | 15.082 fold | – | – | – | –
GSGQSHRQPENQQT | 0.159 fold | 0.209 fold | 1.529 fold | 2.153 fold | – | – | – | –
GSGQSHRSELNQQT | 0.256 fold | 0.668 fold | 1.585 fold | 11.974 fold | – | – | – | –
GSGQSHSLATNQQT | 0.343 fold | 1.021 fold | 1.745 fold | 2.711 fold | – | – | – | –
GSGQSHSLETNQQT | – | – | – | – | 0.363 fold | 0.520 fold | 1.188 fold | 1.319 fold

Sequence | Fold enrichment over AAV9 in the brain of Mice (BALB/c) ([1]; RNA NGS, brain of BALB/c mice) | Fold enrichment over AAV9 in the brain of Mice (C57Bl/6) ([2]; RNA NGS, brain of C57Bl/6 mice) | Fold enrichment over AAV9 in the brain of NHPs ([3]; RNA NGS, brain of NHPs) | Fold enrichment over AAV9 in the spinal cord of NHPs ([3]; RNA NGS, spinal cord of NHPs) | Fold enrichment over AAV9 in the brain of Mice (BALB/c) [1, 4] | Fold enrichment over AAV9 in the brain of Mice (C57Bl/6) [2, 5] | Fold enrichment over AAV9 in the brain of NHPs ([3]; RNA from brain of NHPs, NGS) | Fold enrichment over AAV9 in the spinal cord of NHPs [3, 6]
GSGQSMTLHLNQQT | 0.248 fold | 0.721 fold | 1.827 fold | 0.991 fold | – | – | – | –
GSGQSREISLNQQT | 0.282 fold | 0.594 fold | 1.088 fold | 6.954 fold | – | – | – | –
GSGQSSGRLINKQT | 0.277 fold | 0.543 fold | 2.055 fold | 28.135 fold | – | – | – | –
GSGQSSYGSGNQQT | – | – | – | – | 0.456 fold | 1.161 fold | 1.257 fold | 1.686 fold
GSGQSTLKRINQQT | – | – | – | – | 1.184 fold | 0.534 fold | 1.168 fold | 13.442 fold
GSGQSVQTVVNQQT | 0.240 fold | 0.582 fold | 3.057 fold | 5.441 fold | – | – | – | –
GSGQSYDMRGNQQT | – | – | – | – | 0.368 fold | 0.588 fold | 1.248 fold | 0.567 fold
GSGQSYQRDHNQQT | 0.323 fold | 0.779 fold | 1.859 fold | 8.013 fold | – | – | – | –
GSGQSYTMTQNQQT | 0.231 fold | 0.297 fold | 2.136 fold | 6.755 fold | – | – | – | –
GSGQTARNGINQQT | – | – | – | – | 0.472 fold | 1.002 fold | 1.192 fold | 2.030 fold
GSGQTHGGQHNQQT | 1.098 fold | 1.448 fold | 2.125 fold | 12.251 fold | – | – | – | –
GSGQTQVLKSNQQT | 0.975 fold | 1.599 fold | 1.640 fold | 3.031 fold | – | – | – | –
GSGQTRMPLANQQT | – | – | – | – | 0.273 fold | 0.447 fold | 1.296 fold | 0.790 fold
GSGQTRQMKDNQQT | 0.214 fold | 0.841 fold | 1.530 fold | 11.079 fold | – | – | – | –
GSGQTSGLKQNQQT | 0.334 fold | 0.394 fold | 1.968 fold | 3.927 fold | – | – | – | –
